Results on four compounds are retold here after article PMC11462627, “SAL0114: a novel deuterated dextromethorphan-bupropion combination with improved antidepressant efficacy and safety profile” (Frontiers in Pharmacology, 2024).

Like-named read-outs stand apart in the source and are kept apart here.

Data set [1] has as its target T1, Sigma-1 receptor (Homo sapiens, UniProt Q99720).
T1 construct: to the Sigma-1 receptor (Sigma-1R) of human-derived Jurkat cells; host or cells: Jurkat cells
The data set is described as follows: Sigma 1 receptor radioligand binding (3H-pentazocine, Jurkat cells). Here is the method:
The experiments were carried out in the Eurofins Discovery laboratory, and the methods were referenced from previous studies with modifications ([Prasad et al., 1999]). Competitive binding of the samples and ^3H-pentazocine to the Sigma-1 receptor (Sigma-1R) of human-derived Jurkat cells was assessed using a radioligand binding method. The ability of the compound to bind competitively to the Sigma-1 receptor (Ki) was determined by detecting the signal value of the radioligand bound to the receptor.

The target in data set [2] is T2, norepinephrine transporter (Homo sapiens, UniProt P23975).
T2 construct: purchased PerkinElmer, Inc RBHNETM400UA
As to the kind of experiment: Norepinephrine transporter (NET) radioligand binding (3H-Nisoxetine). Here is the method: The experiments were carried out in the Pharmaron laboratory, and the methods were referenced from previous studies with modifications ([Bylund and Toews, 1993]; [Galli et al., 1995]). Competitive binding of the compound and ^3H-Nisoxetine to NETs was assessed using a radioligand binding method. The ability of the compound to competitively bind to NET (Ki) was determined by detecting the signal value of the radioligand bound to the transporter using a Microbeta instrument (2450, Perkin Elmer, Massachusetts, United States).

A short description of data set [3]: Metabolic stability in liver microsomes. In kind it is in vitro ADME, human. How it is done: All incubations were performed in duplicates. Verapamil was used as the positive control. After pre-warming the mixture for 5 min, reactions were initiated by the addition of NADPH (1 mM). Samples (30 μL) were taken at 0, 20, and 60 min, and the reaction was immediately terminated by adding 150 μL acetonitrile containing an analytical internal standard (IS). Samples were centrifuged at 4,000 rpm for 5 min in a centrifuge (5810R, Eppendorf, Germany), and the supernatant was analyzed by LC-MS/MS (Thermo Scientific TSQ Quantum Ultra, United States).
The in vivo clearance values (CLint = CLint, in vitro × (mg protein/g liver weight) × (g liver weight/kg body weight)) of humans were predicted by CLint, in vitro values using physiologically-based scaling factors, hepatic microsomal protein concentrations (48.8 mg protein/g liver), and liver weights (25.7 g/kg body weight). The in vivo hepatic clearance (CLH= (Q × CLint)/(Q + CLint)) was then calculated by using CLint and hepatic blood flow, Q (20.7 mL·min^−1·kg^−1 in humans).
For orientation: Microsomes from liver hold many membrane-bound enzymes, among them those of drug oxidation.

Data set [4] is described as follows: Pharmacokinetic study in C57BL/6 mice. The data set is classed as in vivo. To be noted: male, C57BL/6, mouse, plasma, po, 20 mg/kg. The source says: The assay was built in a way similar to that previously published by [Beconi et al. (2011)] with some modifications. A total of 36 male C57BL/6 mice, weighing between 20 and 22 g, were randomly divided into four groups of nine mice each. […] Mice in each group were numbered 1–9. Following the oral administration of the compounds in each group, blood was collected from the jugular vein at the specified time points, with three mice at each time point and two to three times for each mouse. 1–3 numbered mice had blood collection time points of 0.25, 1.5, and 7 h after the administration of the compounds, 4–6 numbered mice had blood collection time points of 0.5, 2, and 24 h after the administration of the compounds, and 7–9 numbered mice had blood collection time points of 1 and 5 h after the administration of the compounds. All blood samples were collected without anesthesia, and blood was collected in heparinized EP tubes. Plasma was obtained by centrifuging the blood at 10,000 rpm for 2 min at 4°C.

The nature of data set [5]: Pharmacokinetics in male SD rat after oral administration. To be noted: male, SD, rat, in vivo, po, 50 mg/kg. The data set is classed as in vivo. An excerpt: Results expressed as mean, n=3 per group
In data set [6] the test system is ICR mice. As to the kind of experiment: Forced swim test. As to conditions: FST, oral, 1 h after administration, deDM 10 and 18 mg/kg, BUP 50 mg/kg, deDM + BUP 10 + 50 and 18 + 50 mg/kg. The data set is classed as in vivo. Here is the method: The mouse forced swim test was performed in a way similar to that published previously by Nguyen et al. ([Nguyen et al., 2017]) with some modifications. […] All compounds were administered orally via gavage at a volume of 10 mL/kg body weight, with the vehicle group receiving an equivalent volume of saline. 1 h after administration, mice underwent the forced swim test (FST), a widely used behavioral assay for evaluating antidepressant-like effects. Each mouse was individually placed in a transparent cylindrical tank filled with water (depth: 18 cm, temperature: 25°C ± 1°C) for a 6-min test session. The initial 2 min served as the acclimatization period and was not scored. Floating time during the subsequent 4 min was measured using ANY-Maze Version 4.63 video tracking software (Stoelting Co., Illinois, United States). Floating was defined as the minimum movement required to keep the animal’s head above water. Floating time (%) = floatting time(s)/240 s. The ANY-Maze software parameters were set as follows: acclimatization period = 120 s, test duration = 240 s, minimum immobility time = 2 s, and immobility sensitivity = 75%. To maintain consistent conditions, water was changed between the animals. […]

Data set [7] deals with ICR mice. The data set is described as follows: Tail suspension test. In kind it is in vivo. As to conditions: TST, oral, 1 h after administration, deDM 10 and 18 mg/kg, BUP 50 mg/kg, deDM + BUP 10 + 50 and 18 + 50 mg/kg. How it is done: The TST was adapted from the behavioral despair test described by Nguyen et al. ([Nguyen et al., 2017]), with some modifications. […] All compounds were administered orally via gavage at a volume of 10 mL/kg body weight, with the vehicle group receiving an equivalent volume of saline. One hour after administration, mice underwent a tail suspension test (TST). For the TST, each mouse was suspended by its tail, with adhesive tape attached 2 cm from the tail tip and secured to a metal rod. Care was taken to ensure a minimum distance of 15 cm between the suspended animal and the surrounding objects. The test was performed using the ANY-maze version 4.63 video tracking program (Stoelting Co., Wood Dale, IL, United States) for a total duration of 6 min. The initial 2 min served as an acclimatization period and were not scored. The immobility time during the subsequent 4 min was measured using the same software. Immobility was defined as mouse hanging passively and motionless. The ANY-Maze software parameters were set as follows: acclimatization period = 120 s, test duration = 240 s, minimum immobility time = 2 s, and immobility sensitivity = 75%. […]

Data set [8] has as its system Sprague-Dawley rats. The data set is described as follows: Reserpine-induced hypothermia in rats. In kind it is in vivo. As to conditions: reserpine 4 mg/kg i.p. rats, oral, 30 min after treatment; BUP 40 mg/kg, deDM 5 and 10 mg/kg, deDM + BUP 5 + 40 and 10 + 40 mg/kg. Here is the method:
A reserpine-induced hypothermia test was performed according to the method described by Rojas-Corrales et al. ([Rojas-Corrales et al., 2004]; [Dhamija et al., 2017]), with some modifications. 80 male Sprague-Dawley rats were administered an intraperitoneal injection of reserpine (4 mg/kg). 18 h after the injection, rectal temperatures were measured using a rectal probe connected to a thermometer (MC-347, Omron Healthcare, Dalian, China). Rats with body temperatures not exceeding 34.5°C were considered successfully modeled. […] An additional group of ten rats not treated with reserpine served as the normal control. After the group assignment, the second phase of compound administration was initiated. The normal and model control groups received oral saline (10 mL/kg), whereas the other groups received their respective compounds orally at the specified doses, all in an equivalent volume (10 mL/kg). Rectal temperatures were measured 30 min after treatment to assess the effect of compounds in each group on the reserpine-induced hypothermia model. All experimental procedures were conducted in strict accordance with guidelines approved by the Institutional Animal Care and Use Committee of Shenzhen Salubris Pharmaceuticals Co., Ltd. A P value of less than 0.05 was considered statistically significant for comparisons between groups.

Data set [9] relates to C57BL/6J mice. As to the kind of experiment: Ammonia-induced cough mouse model. The data set is classed as in vivo. As to conditions: oral. Here is the method: Antitussive effects were investigated using a classical mouse cough model induced by ammonia liquor, with some modifications ([Jiang et al., 2014]; [Adejayan et al., 2019]). An ammonia-induced cough model in male C57BL/6J mice was used to evaluate the antitussive effects using a two-step approach. The initial screening phase aimed to identify the mice with consistent and pronounced cough responses. Individual mice were exposed to 0.2 mL of 13% ammonium hydroxide solution in 500 mL glass vials. A trained observer measured the latency period and recorded the number of coughs over a 3-min period post-exposure. […] Following a 24-h recovery period, 70 eligible mice were randomly allocated to seven treatment groups (n = 10 per group) for the compound evaluation phase. […] All compounds were administered orally at a volume of 10 mL/kg. At 0.5 h post-administration, each mouse was re-exposed to 0.2 mL of 13% ammonia in a 500 mL glass jar for 1 min. Subsequently, the trained observer recorded the number of coughs over a 3-min period following removal from the jar. […] All experimental procedures were conducted in strict compliance with guidelines approved by the Institutional Animal Care and Use Committee of Shenzhen Salubris Pharmaceuticals Co., Ltd., ensuring adherence to ethical standards in animal research. A P value of less than 0.05 was considered statistically significant for comparisons between groups.

Data set [10] has as its target NMDA receptor. As to conditions: for Ki: read-out: Ki, NMDA receptor, 3H-MK801 competition, rat brain membranes, mean, n = 4. How it is done: Membrane preparation was performed as previously described ([Werling et al., 2007]). Briefly, the brains of male Sprague-Dawley rats were dissected for tissue collection. The tissue was then homogenized in ice-cold extraction solution and centrifuged at 40,000 × g for 10 min (minute). The supernatant was discarded, the precipitate was resuspended in extraction solution, and the above steps were repeated two times. Finally, the precipitate was resuspended in a 10-fold volume of resuspension solution and stored at −80°C. Protein concentration was determined using a PierceTM BCA Protein Assay Kit. The competitive binding of the compound and ^3H-MK801 to the NMDA receptor was evaluated utilizing the filtration binding method. This method involves washing unbound radioligands and subsequently quantifying the signal values of the radioligands bound to the NMDA receptor using a Microbeta instrument (catalog number: 2450, Perkin Elmer, Massachusetts, United States).

Data set [11] addresses T3, nAchR α3β4 (Homo sapiens, UniProt P30926+P32297).
T3 construct: host or cells: CHO-K1
As to the kind of experiment: nAchR α3β4 radioligand binding (125I-epibatidine, recombinant CHO-K1 cells). Here is the method:
The experiments were carried out in the Eurofins Discovery laboratory, and the methods were referenced from previous studies with modifications ([Michelmore et al., 2002]; [Zaveri et al., 2010]). The competitive binding of the samples and ^125I-epibatidine to the nAchR α3β4 in human recombinant CHO-K1 cells was assessed using a radioligand binding method. The ability of the compound to competitively bind to nAchR α3β4 (Ki) was determined by detecting the signal value of the radioligand bound to the receptor.

Data set [12] concerns the target T4, serotonin transporter (Homo sapiens, UniProt P31645).
T4 construct: purchased PerkinElmer, Inc RBHSTM400UA
The data set is described as follows: biochemical. In kind it is binding. To be noted: for Ki: radioligand competition, mean, n = 2. Here is the method: The experiments were carried out in the Pharmaron laboratory, and the methods were referenced from previous studies with modifications ([Yang and Gouaux, 2021]). Competitive binding of the samples and ^3H-hydroxytryptamine creatine sulfate on SERT was assessed using a radioligand binding method. The ability of the compound to competitively bind to SERT (Ki) was determined by detecting the signal value of the radioligand bound to the transporter using a Microbeta instrument (2,450, Perkin Elmer, Massachusetts, United States).
(Displacement assays read how much labelled ligand stays bound in the presence of the test substance.)

The term Ki denotes the dissociation constant of the complex between target and ligand, obtained from inhibition or displacement. What is called half-life is the time needed for the level to fall by half in the phase considered. A high value points to slow decline. The term AUC(0-t) denotes exposure summed from dosing to a finite time, without extrapolation to infinity. The term Cmax denotes the highest concentration seen after dosing.

T4 sequence (P31645 whole entry): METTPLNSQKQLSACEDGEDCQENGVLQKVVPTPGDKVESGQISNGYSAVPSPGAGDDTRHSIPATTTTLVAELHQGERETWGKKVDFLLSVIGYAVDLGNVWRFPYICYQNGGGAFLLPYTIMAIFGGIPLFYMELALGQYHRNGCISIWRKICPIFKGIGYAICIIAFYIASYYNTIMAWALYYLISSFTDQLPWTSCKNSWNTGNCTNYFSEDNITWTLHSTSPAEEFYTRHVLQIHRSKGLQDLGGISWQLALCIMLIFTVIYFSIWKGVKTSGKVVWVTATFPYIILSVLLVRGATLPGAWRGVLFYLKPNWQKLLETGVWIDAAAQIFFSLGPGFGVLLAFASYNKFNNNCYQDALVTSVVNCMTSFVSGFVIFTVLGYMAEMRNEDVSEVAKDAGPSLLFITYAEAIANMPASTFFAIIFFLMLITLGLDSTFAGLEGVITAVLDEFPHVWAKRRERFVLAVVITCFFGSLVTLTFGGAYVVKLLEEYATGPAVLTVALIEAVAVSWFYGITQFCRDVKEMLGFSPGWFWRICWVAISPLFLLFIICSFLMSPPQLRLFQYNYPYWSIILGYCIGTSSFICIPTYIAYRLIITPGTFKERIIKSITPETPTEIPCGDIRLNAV
T2 sequence (P23975 whole entry): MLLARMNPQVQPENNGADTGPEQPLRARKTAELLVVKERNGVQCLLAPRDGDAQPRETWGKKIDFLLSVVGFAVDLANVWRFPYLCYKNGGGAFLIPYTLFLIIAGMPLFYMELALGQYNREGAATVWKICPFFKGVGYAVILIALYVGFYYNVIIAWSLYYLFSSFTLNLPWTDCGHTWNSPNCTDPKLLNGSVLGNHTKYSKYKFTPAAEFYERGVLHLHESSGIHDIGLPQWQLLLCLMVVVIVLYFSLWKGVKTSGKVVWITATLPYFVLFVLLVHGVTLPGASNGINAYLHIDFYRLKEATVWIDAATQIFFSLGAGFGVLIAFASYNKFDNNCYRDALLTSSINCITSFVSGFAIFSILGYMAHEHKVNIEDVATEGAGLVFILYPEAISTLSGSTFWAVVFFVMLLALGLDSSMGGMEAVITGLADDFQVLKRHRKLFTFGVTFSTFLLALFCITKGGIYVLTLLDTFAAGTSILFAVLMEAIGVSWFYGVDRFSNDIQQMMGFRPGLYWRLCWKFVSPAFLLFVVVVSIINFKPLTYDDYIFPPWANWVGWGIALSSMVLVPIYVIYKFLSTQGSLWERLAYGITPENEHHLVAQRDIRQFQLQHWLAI
T1 sequence (Q99720 whole entry): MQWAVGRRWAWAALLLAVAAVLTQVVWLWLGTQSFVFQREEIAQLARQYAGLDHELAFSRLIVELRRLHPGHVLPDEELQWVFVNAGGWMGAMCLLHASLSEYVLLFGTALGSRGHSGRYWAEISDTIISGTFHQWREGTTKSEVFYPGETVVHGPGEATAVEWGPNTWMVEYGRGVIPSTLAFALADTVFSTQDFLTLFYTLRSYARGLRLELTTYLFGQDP
T3 sequence (P32297 32-505): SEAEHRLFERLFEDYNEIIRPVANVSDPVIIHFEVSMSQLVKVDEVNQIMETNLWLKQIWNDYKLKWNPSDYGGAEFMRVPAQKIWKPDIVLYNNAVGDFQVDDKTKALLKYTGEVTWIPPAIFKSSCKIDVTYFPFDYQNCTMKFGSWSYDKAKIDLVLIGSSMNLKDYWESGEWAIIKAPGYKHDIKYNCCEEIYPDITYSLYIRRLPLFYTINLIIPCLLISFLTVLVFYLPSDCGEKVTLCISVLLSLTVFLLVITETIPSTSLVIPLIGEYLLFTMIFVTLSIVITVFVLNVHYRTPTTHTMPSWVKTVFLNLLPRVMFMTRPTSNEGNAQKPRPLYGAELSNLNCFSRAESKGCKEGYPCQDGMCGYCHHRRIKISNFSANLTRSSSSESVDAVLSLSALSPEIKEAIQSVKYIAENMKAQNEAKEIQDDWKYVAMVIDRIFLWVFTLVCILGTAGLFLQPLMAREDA
T3 sequence (P30926 22-498): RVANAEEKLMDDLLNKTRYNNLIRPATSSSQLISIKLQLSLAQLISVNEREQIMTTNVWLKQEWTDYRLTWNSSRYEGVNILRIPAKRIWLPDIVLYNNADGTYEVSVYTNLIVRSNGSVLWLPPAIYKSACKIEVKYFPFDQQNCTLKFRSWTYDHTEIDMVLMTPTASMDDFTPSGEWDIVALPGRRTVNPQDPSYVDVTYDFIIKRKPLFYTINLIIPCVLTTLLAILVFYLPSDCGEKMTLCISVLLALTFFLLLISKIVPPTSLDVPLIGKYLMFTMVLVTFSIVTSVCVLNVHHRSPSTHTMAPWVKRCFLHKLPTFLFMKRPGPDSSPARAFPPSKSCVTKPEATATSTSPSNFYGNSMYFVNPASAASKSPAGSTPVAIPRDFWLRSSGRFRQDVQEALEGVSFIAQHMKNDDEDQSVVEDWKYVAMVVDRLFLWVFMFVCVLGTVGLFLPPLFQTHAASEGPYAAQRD

`COc1ccc2c(c1)[C@]13CCCC[C@@H]1[C@H](C2)N(C)CC3` [DM, dextromethorphan]: the figures for the Ki in data set [1] and in data set [2] were 1.67 µM and 20.5 µM, respectively. This compound also gave a half-life at 1 μM in [3] (1 μM, 0.5 mg/mL human liver microsomes, NADPH 1 mM, 37°C, mean, n = 2) of 1.24 h. Further, the CLint scaled at 1 μM in data set [3] (human, liver microsomes, read-out: CLint, in vitro) is 23.4 mL/min/kg. Further, the CLH in data set [3] (in vivo hepatic clearance predicted from CLint and hepatic blood flow 20.7 mL/min/kg, human) is reported as 11.0 mL/min/kg. The values for the AUC(0-t) in data set [4] and in data set [5] were 184 ± 168 ng·h/mL and 194 ng·h/mL, respectively. Further, the Cmax was determined as 74.9 ± 49 ng/mL in data set [4] (read-out: Cmax) and 56 ng/mL in data set [5] (read-out: Cmax).

Take `CC(NC(C)(C)C)C(=O)c1cccc(Cl)c1` (centres unmarked) [BUP, bupropion]: the “floating time compared to the vehicle group” value in data set [6] is reported as “significantly reduced the floating time”. Further, the “immobilization time compared to the vehicle group” value in data set [7] is given as “significantly reduced the immobilization time”. For the same compound, the “body temperature compared with the model (vehicle) group” value in [8] is “significantly increased the body temperature”. The compound also yielded a cough inhibition rate in data set [9] (40 mg/kg, 0.5 h post-administration) of 19.5%. Moreover, the “cough inhibition compared with the vehicle group” value in [9] (deDM 5 and 10 mg/kg, BUP 40 mg/kg, deDM + BUP 5 + 40 and 10 + 40 mg/kg) was “neither deDM nor BUP significantly inhibited cough”.

For the compound deuterated dextrorphan [deDX], the Ki in data set [10] came to 0.42 µM; in [1] (3H-pentazocine competition, human-derived Jurkat cells, mean, n = 2, read-out: Ki, Sigma-1 receptor), 2.86 µM; in data set [11] (125I-epibatidine competition, human recombinant CHO-K1 cells, mean, n = 2, read-out: Ki, α3β4 nicotinic acetylcholine receptors), 15 µM; in [12], 0.12 µM; in data set [2] (3H-Nisoxetine competition, mean, n = 2, read-out: Ki, norepinephrine transporter), 7.93 µM.

As for `CN1CC[C@@]23CCCC[C@@H]2[C@@H]1Cc1ccc(O)cc13` [DX, dextrorphan, reference compound], the “higher affinity for NMDA receptors compared to DM” value in [10] (ratio of Ki values) is 7 fold. Also, the Ki is 0.22 µM in [10]; 2.85 µM in data set [1]; 9.98 µM in data set [11]; 0.14 µM in [12]; 5.67 µM in data set [2]. The “lower affinity for SERT compared to DM” value in data set [12] (ratio of Ki values) was found to be 17 fold.
